# Assay results: publication PMC10113271, “Rational peptide design for inhibition of the KIX–MLL interaction” (Scientific Reports, 2023)
# Like-named read-outs stand apart in the source and are kept apart here. Where a SMILES comes first, the peptide text is derived from it. Where no end group is shown, it is not given here.
# Experiments:
# KIX = target: T1, KIX (Mus musculus, UniProt P45481); experiment: KIX binding by isothermal titration calorimetry (ITC); settings: 30 °C; for N (stoichiometry of binding): pH 7.0, mean ± standard error of triplicate or more; for − TΔS: entropy term upon KIX binding, pH 7.0, ΔS=(ΔH-ΔG)/T, mean ± standard error of triplicate or more
# T1 construct: The DNA fragment of KIX (residues 586–672 of mouse CBP); 6xHis-tag with thrombin cleavage site (N); made in house; host or cells: E. coli BL21(DE3)pLysS
# Description: For the expression of MLL TAD, E. coli BL21(DE3) competent cells were transformed with the plasmid and cultivated at 37 °C in 2 × YT liquid medium supplemented with ampicillin. When an optical density at 600 nm (OD600) of the cell culture reached 0.7–0.8, 1 mM isopropyl β-D-1-thiogalactopyranoside was added to induce protein expression. After 4 h of cultivation, the cells were harvested by centrifugation. The E. coli cell pellet was suspended with buffer HP (50 mM sodium phosphate [pH 7.4], 300 mM NaCl, 10 mM imidazole, and 6 M guanidine hydrochloride). The sonicated lysate was centrifuged at 4 °C, and the supernatant was filtered using a membrane filter and applied to a gravity column (50 mL) containing 5 mL of nickel-nitrilotriacetic acid (Ni–NTA) resin (Qiagen, Hilden, Germany). The column was washed with buffer HP and buffer AP (50 mM sodium phosphate [pH 7.4], 300 mM NaCl, and 10 mM imidazole) to remove impurities. To elute His-tag–GB1–MLL TAD for ITC and SPR measurements, 40 mL of buffer EP (50 mM sodium phosphate [pH 7.4], 300 mM NaCl, and 250 mM imidazole) was added to the column. […] Thus, His-tag–GB1–MLL TAD was used in the ITC measurements, with the exception of the four mutants (I2849L, D2851L, K2855R, and T2857I). To obtain the MLL TAD peptide without His-tag–GB1 for CD measurements, we washed the column, to which the His-tag–GB1–MLL TAD was attached, with buffer TP (50 mM sodium phosphate [pH 7.4] and 300 mM NaCl), added 150 units of thrombin to the column for digestion of the His-tag–GB1, and eluted the MLL TAD peptide with buffer TP. After Ni–NTA column purification, anion exchange chromatography was performed to further purify the aforementioned four mutants without His-tag–GB1 using the AKTAprime plus chromatography system (Cytiva, Marlborough, MA, USA; 10 mM sodium phosphate [pH 6.0] and 0–1 M NaCl). Due to the fact that the CD spectra of the four mutants were unchanged before and after the anion exchange chromatography, we omitted this procedure for other mutants.
# Expression and purification of the KIX protein was performed in the same way as MLL, except that E. coli BL21(DE3)pLysS competent cells and 2 × YT liquid medium with ampicillin and chloramphenicol were used. After Ni–NTA column purification, gel filtration chromatography was performed using a Superdex 200 pg column (Cytiva) and the ITC buffer (20 mM Tris–acetate [pH 7.0] and 50 mM NaCl).
# ITC measurements were performed using MicroCal iTC200 (Malvern Panalytical Ltd., Malvern, United Kingdom) at 30 °C. Samples were sufficiently dialyzed with the ITC buffer before measurements. The 600 μM MLL solution was titrated into the cell containing 45 µM KIX. The data were analyzed using the Origin 7 software (OriginLab Corp., Northampton, MA, USA; https://www.originlab.com) to obtain the Kd (M), ΔH (kcal/mol), and stoichiometry of binding, N. The ΔG (kcal/mol) and ΔS (kcal/mol/K) were obtained as follows:2 ΔG=-RTln1/Kd 3 ΔS=ΔH-ΔG/T where R is the gas constant, and T is the temperature.
# KIX–MLL interaction = settings: cited from earlier work
# Description: Previous studies have reported several inhibitors that bind the MLL site of KIX, including isoxazolidine derivatives, which are small molecule compounds that mimic the function of the TADs of transcriptional activators, and natural products such as sekikaic acid and lobaric acid[21],[22]. […] However, the EC50 and IC50 values of these small molecule inhibitors are 10- to 100-fold larger than the Kd for the KIX–MLL interaction (2.02 ± 0.04 μM).
# [1] = inhibition of the KIX–MLL interaction
# T1 sequence (P45481 586-672): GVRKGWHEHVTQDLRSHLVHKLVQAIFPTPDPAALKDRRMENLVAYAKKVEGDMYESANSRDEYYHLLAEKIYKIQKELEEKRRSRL
Compound,− TΔS (KIX),also measured
CC[C@H](C)[C@H](NC(=O)[C@H](CC(=O)O)NC(=O)[C@H](CO)NC(=O)[C@@H]1CCCN1C(=O)[C@H](CC(C)C)NC(=O)[C@@H](NC(=O)[C@H](CC(N)=O)NC(=O)CN)[C@@H](C)CC)C(=O)N[C@@H](CCSC)C(=O)N[C@@H](CC(C)C)C(=O)N[C@@H](Cc1ccccc1)C(=O)N[C@H](C(=O)N[C@@H](CC(C)C)C(=O)N[C@@H](CCCCN)C(=O)N[C@@H](CC(N)=O)C(=O)N[C@H](C(=O)N1CCC[C@H]1C(=O)N[C@@H](CO)C(=O)N[C@@H](CCSC)C(=O)N[C@@H](CCC(N)=O)C(=O)N[C@@H](C)C(=O)N[C@@H](CC(C)C)C(=O)NCC(=O)N[C@@H](CCC(=O)O)C(=O)N[C@@H](CO)C(=O)N1CCC[C@H]1C(=O)N[C@@H](CCC(=O)O)C(=O)N[C@@H](CO)C(=O)N[C@@H](Cc1ccc(O)cc1)C(=O)O)[C@@H](C)O)C(C)C [D2851L] (H-GNILPSDIMLFVLKNTPSMQALGESPESY-OH; N-terminus and C-terminus assumed),5.86 ± 1.7 kJ/mol,N (stoichiometry of binding) (KIX): 1.020 ± 0.006
CC[C@H](C)[C@H](NC(=O)[C@H](CC(N)=O)NC(=O)CN)C(=O)N[C@@H](CC(C)C)C(=O)N1CCC[C@H]1C(=O)N[C@@H](CO)C(=O)N[C@@H](CC(=O)O)C(=O)N[C@@H](CC(C)C)C(=O)N[C@@H](CCSC)C(=O)N[C@@H](CC(=O)O)C(=O)N[C@@H](Cc1ccccc1)C(=O)N[C@H](C(=O)N[C@@H](CC(C)C)C(=O)N[C@@H](CCCCN)C(=O)N[C@@H](CC(N)=O)C(=O)N[C@H](C(=O)N1CCC[C@H]1C(=O)N[C@@H](CO)C(=O)N[C@@H](CCSC)C(=O)N[C@@H](CCC(N)=O)C(=O)N[C@@H](C)C(=O)N[C@@H](CC(C)C)C(=O)NCC(=O)N[C@@H](CCC(=O)O)C(=O)N[C@@H](CO)C(=O)N1CCC[C@H]1C(=O)N[C@@H](CCC(=O)O)C(=O)N[C@@H](CO)C(=O)N[C@@H](Cc1ccc(O)cc1)C(=O)O)[C@@H](C)O)C(C)C [I2849L] (H-GNILPSDLMDFVLKNTPSMQALGESPESY-OH; N-terminus and C-terminus assumed),19.2 ± 0.84 kJ/mol,N (stoichiometry of binding) (KIX): 0.947 ± 0.008
CC[C@H](C)[C@H](NC(=O)[C@H](CC(=O)O)NC(=O)[C@H](CO)NC(=O)[C@@H]1CCCN1C(=O)[C@H](CC(C)C)NC(=O)[C@@H](NC(=O)[C@H](CC(N)=O)NC(=O)CN)[C@@H](C)CC)C(=O)N[C@@H](CCSC)C(=O)N[C@@H](CC(=O)O)C(=O)N[C@@H](Cc1ccccc1)C(=O)N[C@H](C(=O)N[C@@H](CC(C)C)C(=O)N[C@@H](CCCNC(=N)N)C(=O)N[C@@H](CC(N)=O)C(=O)N[C@H](C(=O)N1CCC[C@H]1C(=O)N[C@@H](CO)C(=O)N[C@@H](CCSC)C(=O)N[C@@H](CCC(N)=O)C(=O)N[C@@H](C)C(=O)N[C@@H](CC(C)C)C(=O)NCC(=O)N[C@@H](CCC(=O)O)C(=O)N[C@@H](CO)C(=O)N1CCC[C@H]1C(=O)N[C@@H](CCC(=O)O)C(=O)N[C@@H](CO)C(=O)N[C@@H](Cc1ccc(O)cc1)C(=O)O)[C@@H](C)O)C(C)C [K2855R] (H-GNILPSDIMDFVLRNTPSMQALGESPESY-OH; N-terminus and C-terminus assumed),23.8 ± 1.7 kJ/mol,N (stoichiometry of binding) (KIX): 0.94 ± 0.02
O=C(Nc1ccc(Cl)cc1)c1cc2ccccc2cc1OP(=O)(O)O [KG-501],–,IC50 (KIX–MLL interaction; small molecule inhibitor of the KIX–MLL interaction): 200 ± 10 µM
CC[C@H](C)[C@H](NC(=O)[C@H](CC(=O)O)NC(=O)[C@H](CO)NC(=O)[C@@H]1CCCN1C(=O)[C@H](CC(C)C)NC(=O)[C@@H](NC(=O)[C@H](CC(N)=O)NC(=O)CN)[C@@H](C)CC)C(=O)N[C@@H](CCSC)C(=O)N[C@@H](CC(=O)O)C(=O)N[C@@H](Cc1ccccc1)C(=O)N[C@H](C(=O)N[C@@H](CC(C)C)C(=O)N[C@@H](CCCCN)C(=O)N[C@@H](CC(N)=O)C(=O)N[C@H](C(=O)N1CCC[C@H]1C(=O)N[C@@H](CO)C(=O)N[C@@H](CCSC)C(=O)N[C@@H](CCC(N)=O)C(=O)N[C@@H](C)C(=O)N[C@@H](CC(C)C)C(=O)NCC(=O)N[C@@H](CCC(=O)O)C(=O)N[C@@H](CO)C(=O)N1CCC[C@H]1C(=O)N[C@@H](CCC(=O)O)C(=O)N[C@@H](CO)C(=O)N[C@@H](Cc1ccc(O)cc1)C(=O)O)[C@@H](C)CC)C(C)C [T2857I] (H-GNILPSDIMDFVLKNIPSMQALGESPESY-OH; N-terminus and C-terminus assumed),9.25 ± 0.33 kJ/mol,N (stoichiometry of binding) (KIX): 1.043 ± 0.003
CCCCCc1c2c(cc(O)c1C(=O)O)OC(=O)c1c(cc(OC)cc1C(=O)CCCC)O2 [lobaric acid],–,IC50 (KIX–MLL interaction; [1]): 17 µM
CCCc1cc(OC)cc(O)c1C(=O)Oc1c(OC)cc(CCC)c(C(=O)O)c1O [sekikaic acid],–,IC50 (KIX–MLL interaction; [1]): 34 µM
K2855R / T2857L: K2855R/T2857L double mutant of the MLL TAD peptide ({His6-GB1}-GNILPSDIMDFVLRNLPSMQALGESPESY),6.28 ± 0.84 kJ/mol,–
K2855R / T2857W: K2855R/T2857W double mutant of the MLL TAD peptide ({His6-GB1}-GNILPSDIMDFVLRNWPSMQALGESPESY),16.2 ± 0.21 kJ/mol,–
"T2857A: T2857A mutant of the MLL TAD peptide (GNILPSDIMDFVLKNAPSMQALGESPESY; left off: His6, N-terminal, cleaved | GB1 (B1 domain of Streptococcal protein G), N-terminal, cleaved)",16.7 ± 0.84 kJ/mol,–
"T2857F: T2857F mutant of the MLL TAD peptide (GNILPSDIMDFVLKNFPSMQALGESPESY; left off: His6, N-terminal, cleaved | GB1 (B1 domain of Streptococcal protein G), N-terminal, cleaved)",13.4 ± 1.3 kJ/mol,–
T2857K: T2857K mutant of the MLL TAD peptide ({His6-GB1}-GNILPSDIMDFVLKNKPSMQALGESPESY),18.4 ± 0.84 kJ/mol,–
T2857L: T2857L mutant of the MLL TAD peptide ({His6-GB1}-GNILPSDIMDFVLKNLPSMQALGESPESY),10.9 ± 0.42 kJ/mol,–
T2857R: T2857R mutant of the MLL TAD peptide ({His6-GB1}-GNILPSDIMDFVLKNRPSMQALGESPESY),20.5 ± 1.3 kJ/mol,–
"T2857W: T2857W mutant of the MLL TAD peptide, highest KIX affinity ({His6-GB1}-GNILPSDIMDFVLKNWPSMQALGESPESY)",18.4 ± 0.42 kJ/mol,–
T2857Y: T2857Y mutant of the MLL TAD peptide ({His6-GB1}-GNILPSDIMDFVLKNYPSMQALGESPESY),18.8 ± 0.84 kJ/mol,–
